Here are results for seven compounds from patent EP4212633A1 (priority 2022, dated 2023).

For one data set, the system named is SARS-CoV-2. Conditions: Wang et al., 2020, Zhang et al.; cited from earlier work.
A further data set concerns the target SARS-CoV-2 pseudoknot. Kind of data set: ligand observed fluorescence titrations (binding to the pseudoknot). Conditions: for Kd: binding to the pseudoknot structure, Figure 3.
In data set [1] the test system is pseudoknot RNA. Kind of data set: 1H,15N-HSQC NMR experiments (chemical shift perturbation, binding site mapping). On the set-up: species or system SARS-CoV-2.
Data set [2] deals with pseudoknot RNA. Kind of data set: inline probing experiments. Format: binding, SARS-CoV-2.
Another data set concerns COVID-19. Conditions: Cao et al., 2020; cited from earlier work.
The conditions of data set [3]: at higher concentrations; Borba et al., 2020; cited from earlier work.

Structures are written as SMILES.

On to `NC(=O)c1ncn([C@@H]2O[C@H](CO)[C@@H](O)[C@H]2O)n1` [Ribavirin], for which the antiviral activity entry in the data set on SARS-CoV-2 is given as “two- or three-digit micromolar range”.
As for `NC(=O)c1nc(F)cnc1O` [favipavir], the antiviral activity entry with SARS-CoV-2 was “two- or three-digit micromolar range”.
With `CC(C)(C)OC(=O)Nc1cccn([C@@H](CC2CC2)C(=O)N[C@@H](C[C@@H]2CCNC2=O)C(=O)C(=O)NCc2ccccc2)c1=O` [α-ketoamide-Inhibitor 13b], the antiviral activity entry in the data set with SARS-CoV-2 is on record as “low micromolar range”.
`COc1ccc(-c2cc(-c3ccncc3)nc(N3C[C@H](N)C[C@H](N)C3)n2)cc1` [D01+DAP, (3R,5S)-1-(4-(4-methoxyphenyl)-6-(pyridin-4-yl)pyrimidin-2-yl)piperidine-3,5-diamine] displayed a Kd at SARS-CoV-2 pseudoknot of 0.3 µM. For the same compound, the “binding affinity to the SARS-CoV-2 pseudoknot (ranking among evaluated derivatives)” value in the data set with SARS-CoV-2 pseudoknot (ligand observed fluorescence titrations, Figures 3 and 14) is “highest binding affinity”. For the same compound, the “binding site from chemical shift perturbation and decreasing signal intensity” value in the data set with pseudoknot RNA [1] (addition of ligand to pseudoknot RNA, Figure 4A) is on record as “confirmed one of the binding hot spots (HS2) as a binding site”. For the same compound, the “interaction in inline probing” value with pseudoknot RNA [2] (Figure 4B) is “interaction of D01+DAP and the pseudoknot RNA in the predicted HS1 and the loop region (L2)”.
On to `Cc1cccc(C)c1OCC(=O)N[C@@H](Cc1ccccc1)[C@@H](O)C[C@H](Cc1ccccc1)NC(=O)[C@H](C(C)C)N1CCCNC1=O` [lopinavir], for which the “effect in clinical tests” value in the data set with COVID-19 is recorded as “no effect”.
`CCN(CC)CCCC(C)Nc1ccnc2cc(Cl)ccc12` (stereo not drawn) [chloroquine]: the side-effects entry in data set [3] is “heart arrhythmia”.
The compound `Cc1ccc(C)n1CCC(=O)Nc1ccc2nc[nH]c(=O)c2c1` [D05, 3-(2,5-dimethyl-1H-pyrrol-1-yl)-N-(4-oxo-3,4-dihydroquinazolin-6-yl)propanamide] displayed a Kd on SARS-CoV-2 pseudoknot of 140 µM. Moreover, the “interactions with the RNA in NMR experiments” value in the data set with pseudoknot RNA [1] was “showed interactions with the RNA”. Further, the “interactions with the RNA in in-line probing experiments” value in the data set on pseudoknot RNA [2] is “showed interactions with the RNA”.

Broadly, the Kd is a measure of binding affinity in units of concentration. The low end stands for tighter binding, the high end for weaker binding.
